These results are taken from article PMC5430874 (Scientific Reports, 2017).

Positions count from the first letter of the chain named. Read-outs that look alike come from different tables or passages of the source.

For one assay, the target named is T1, GPR139 W241H^6×48 (Homo sapiens, UniProt Q6DWJ6, W241H).
T1 construct: mGluR5 signal peptide (N); expressed in transfected cells; host or cells: HEK293
T1 sequence (Q6DWJ6 2-353 W241H limits assumed): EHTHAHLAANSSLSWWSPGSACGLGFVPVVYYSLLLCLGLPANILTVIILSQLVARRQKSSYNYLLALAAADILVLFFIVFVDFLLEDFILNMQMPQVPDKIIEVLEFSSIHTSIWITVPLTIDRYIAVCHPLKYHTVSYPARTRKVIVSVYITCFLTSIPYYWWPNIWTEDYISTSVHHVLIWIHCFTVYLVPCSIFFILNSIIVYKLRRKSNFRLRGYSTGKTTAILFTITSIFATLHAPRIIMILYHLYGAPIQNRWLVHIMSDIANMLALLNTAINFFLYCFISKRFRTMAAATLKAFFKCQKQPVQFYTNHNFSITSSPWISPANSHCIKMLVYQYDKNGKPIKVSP
The experiment in a line: Fluo-4 Ca2+-assay, GPR139 mutant W241H. The conditions noted are these: for EC50: W241H mutant. The class given is cell-based. Further details: key to Emax ± SEM: NE: no effect (loss of activity). From the text: (§1) To study the influence of specific amino acids in the predicted binding pocket on receptor function, the desired mutations were introduced into an N-terminally c-myc-tagged wild type human GPR139 (NM_001002911.3) in the pEGFP-N1 vector (BD Biosciences)[32], [33]. As previously described, these plasmids carry the signal peptide of mGluR5 to promote cell surface expression followed by a c-myc epitope to enable detection of total and surface expression by ELISA, followed by an engineered MluI and NotI site for easy insertion of the receptor of interest. Furthermore, the start-codon in the GPR139 sequence was deleted to ensure c-myc-tagging. Mutagenesis was designed in Serial Cloner 2.6 (© Franck Perez [SerialBasics]) and carried out by GenScript (USA). All mutated residues are illustrated in Supplementary Fig. 1b. An untagged GPR139(WT) in pEGFP-N1 was also generated to ensure that the c-myc-tag had no influence on GPR139(WT) function.
(§2) All GPR139 mutants were transfected into HEK293 cells. The HEK293 cells were grown in Dulbecco’s modified Eagle’s medium (DMEM) (Gibco, 41965) supplemented with 10% dialyzed fetal bovine serum (Gibco, 26400, United States origin), 100 units/mL penicillin and 100 μg/mL streptomycin (Gibco, 15140). HEK293 cells were reverse transfected using Lipofectamine2000 (Invitrogen). More specifically two mixtures were made: 1) 10 ng DNA/well + 25 μL Opti-MEM/well and 2) […] Lipofectamine2000/well + 25 μL Opti-MEM/well. The two mixtures were mixed and 50 μL/well was added directly in black 96-well plates with flat clear bottoms for the Fluo-4 Ca^2+-assay (Corning, Falcon, 353219) or in white Opaque 96-well Microplate (PerkinElmer Life, 6005680) for ELISA. 100 μL containing 20,000 cells were added to each well and incubated 48 hours before assays. All plates were coated with poly-D-lysine.
(§3) Compound 1a (1a) was kindly provided by H. Lundbeck A/S, Denmark. […] Both compounds were dissolved to 20 mM in DMSO (Sigma, D2650) and subsequently diluted in a HEPES buffer (HBSS (Gibco, 14025) supplemented with 20 mM HEPES + 1 mM MgCl2 + 1 mM CaCl2, pH = 7.4) to a final concentration of 0.5% DMSO in the Fluo-4 Ca^2+-assay. The DMSO level was kept constant for all concentrations of both compounds. DMSO was confirmed not to have any activity by itself at this concentration. L-Trp (T0254) and L -Phe (P2126) were obtained from Sigma-Aldrich and dissolved in buffer.
(§4) The Ca^2+ measurements were preformed using the Fluo-4 NW Calcium Assay Kit (Invitrogen, Molecular Probes, F36206) as previously described. Briefly, the Fluo-4 dye loading solution was prepared according to the manufacturer’s instructions by dissolving it in HEPES-buffer supplemented with 2.5 mM probenecid. 50 μL dye loading solution was added to each well. Cells were incubated with the Fluo-4 dye for 60 min at 37 °C, then washed with 100 μL HEPES-buffer. 100 μL HEPES-buffer supplemented with 2.5 mM probenecid was then added to each well and incubated in 10 minutes at 37 °C before measurement. […] Intracellular calcium changes were recorded as indicated on either a NOVOstar (BMG Labtech) at 37 °C with an excitation filter of 485 nm and an emission filters 520 nm or a FlexStation 3 Benchtop Multi-Mode Microplate Reader (Molecular Devices) at 37 °C with an excitation wavelength of 485 nm and emission of 525 nm.
(§5) All pharmacological data have been analyzed by using Prism 6.0 (GraphPad Software Inc., San Diego). Fitting of concentration response curves was performed by non-linear regression log(agonist) vs. response (four parameters). Pooled data are shown with standard error of the mean (S.E.M.) and data showing one representative are shown with standard deviation (S.D.). Changes in potency (pEC50) and span of myc-GPR139(WT) in comparison to untagged GPR139(WT) was statistically analyzed with a paired t-test and significance was accepted at p < 0.05. The ELISA data were normalized to surface expression of myc-GPR139(WT) (100%). […]

In the next assay the target is T2, GPR139 E108A^3×32 (Homo sapiens, UniProt Q6DWJ6, E108A).
T2 construct: mGluR5 signal peptide (N); expressed in transfected cells; host or cells: HEK293
T2 sequence (Q6DWJ6 2-353 E108A limits assumed): T1 sequence (Q6DWJ6 2-353 W241H limits assumed) with E107A, H240W
In words: Fluo-4 Ca2+-assay, GPR139 mutant E108A. The class given is cell-based. The conditions noted are these: for EC50: E108A mutant.
Source text: as §1, §2, §3, §4, §5

[1] abbreviates: only one experiment, read-out: pEC50 (converted).
Where [2] appears, read: three independent experiments, read-out: pEC50 ± SEM (converted).

Regarding `N[C@@H](Cc1c[nH]c2ccccc12)C(=O)O` [L-Trp, tryptophan], the EC50 on GPR139 W241H^6×48 is greater than 10000 µM; at GPR139 E108A^3×32 (setting [1]), 166 µM. Moreover, at GPR139 W241H^6×48 (W241H, at 10 mM, normalized to buffer (0%) and 10 mM Trp (100%) on WT), the “Emax ± SEM” value is recorded as “NE^#”. Moreover, the Emax at GPR139 E108A^3×32 (E108A, normalized to buffer (0%) and 10 mM Trp (100%) on WT, n=1, read-out: Emax) was determined as 125%.

With `COc1cc(OC)cc(C(=O)NNC(=O)Nc2cccc3ccccc23)c1` [Compound 1a], the EC50 was greater than 7.94 µM on GPR139 W241H^6×48 and 0.209 µM at GPR139 E108A^3×32 (setting [2]). For the same compound, the figures for the change of potency entry on GPR139 W241H^6×48 (W241H mutant versus WT) and at GPR139 E108A^3×32 (E108A mutant versus WT) were “markedly reduced potency” and “no effect”, respectively. Also, at GPR139 W241H^6×48 (W241H, at 8 μM, normalized to buffer (0%) and 8 μM 1a (100%) on WT), the Emax at 8 µM is 27 ± 10%. The Emax on GPR139 E108A^3×32 (E108A, normalized to buffer (0%) and 8 μM 1a (100%) on WT, read-out: Emax ± SEM) was 151 ± 9%.

On to `N[C@@H](Cc1ccccc1)C(=O)O` [L-Phe, phenylalanine], for which the EC50 on GPR139 W241H^6×48 is greater than 31600 µM; on GPR139 E108A^3×32 (setting [1]) it was 251 µM. For the same compound, the “Emax ± SEM” value on GPR139 W241H^6×48 (W241H, at 30 mM, normalized to buffer (0%) and 30 mM Phe (100%) on WT) was “NE^##”. Moreover, the Emax on GPR139 E108A^3×32 (E108A, normalized to buffer (0%) and 30 mM Phe (100%) on WT, n=1, read-out: Emax) came to 127%.

Turning to `C[C@@H](NC(=O)CNC(=O)c1cccc(Cl)c1)c1ccccc1` (racemic) [Compound 7c], on GPR139 W241H^6×48, the Emax at 100 µM turned out to be 12 ± 3% and the EC50 was greater than 100 µM. Also, the EC50 on GPR139 E108A^3×32 (setting [2]) was 0.151 µM. In addition, the Emax at GPR139 E108A^3×32 (read-out: Emax ± SEM) was 112 ± 10%.

The term Emax denotes the size of the effect at its maximum, as opposed to the concentration needed.
